{
  "source": "patent US8778402B2",
  "about": "“Dry powder formulation comprising a corticosteroid and a beta-adrenergic for administration by inhalation” (Chiesi Farmaceutici S.p.A., priority 2012, dated 2014)",
  "data": [
    {"experiment": "Particle size distribution of micronised BDP by laser diffraction (Malvern)", "assay_type": "physicochemical", "details": "micronised beclometasone dipropionate; volume diameter of 10% of particles", "method": "The size of the particles of the active is determined by measuring the characteristic equivalent sphere diameter, known as volume diameter, by laser diffraction. In the reported examples, the volume diameter has been determined using a Malvern apparatus. However, other equivalent apparatus may be used by the skilled person in the art.\nThe particle size was determined by laser diffraction using a Malvern apparatus. The parameter taken into consideration was the VD in microns of 10%, 50% and 90% of the particles expressed as d(v,0.1), d(v, 0.5) and d(v, 0.9), respectively, which correspond to the mass diameter assuming a size independent density for the particles. The span [d(v,0.9)−d(v,0.1)]/d(v,0.5) is also reported. The Specific Surface Area (SSA) was determined by BET nitrogen adsorption using a Coulter SA3100 apparatus as a mean of three determinations.", "units": {"d (v, 0.1)": "μm"}, "values": [
      {"smiles": "CCC(=O)OCC(=O)[C@@]1(OC(=O)CC)[C@@H](C)C[C@H]2[C@@H]3CCC4=CC(=O)C=C[C@]4(C)[C@@]3(Cl)[C@@H](O)C[C@@]21C", "note": "[Batch 1, beclometasone dipropionate]", "d (v, 0.1)": 0.86},
      {"smiles": "CCC(=O)OCC(=O)[C@@]1(OC(=O)CC)[C@@H](C)C[C@H]2[C@@H]3CCC4=CC(=O)C=C[C@]4(C)[C@@]3(Cl)[C@@H](O)C[C@@]21C", "note": "[Batch 2, beclometasone dipropionate]", "d (v, 0.1)": 0.96},
      {"smiles": "CCC(=O)OCC(=O)[C@@]1(OC(=O)CC)[C@@H](C)C[C@H]2[C@@H]3CCC4=CC(=O)C=C[C@]4(C)[C@@]3(Cl)[C@@H](O)C[C@@]21C", "note": "[Batch 3, beclometasone dipropionate]", "d (v, 0.1)": 0.95},
      {"smiles": "CCC(=O)OCC(=O)[C@@]1(OC(=O)CC)[C@@H](C)C[C@H]2[C@@H]3CCC4=CC(=O)C=C[C@]4(C)[C@@]3(Cl)[C@@H](O)C[C@@]21C", "note": "[Batch 4, beclometasone dipropionate]", "d (v, 0.1)": 0.91}
    ]}
  ]
}
